# Where a name gives a salt, the structure may show the parent alone.
# Experiment: Angle of repose α as a measure of flowability and pourability
# Format: physicochemical
# Conditions: determined according to R. Voigt, Lehrbuch der pharmazeutischen Technologie, 3rd Edition 1979, p. 165
# Excerpt: The angle of repose α of the modifications as a measure of the flowability and pourability is likewise different: [table]
row,SMILES,Angle of Repose α
1,"O=C(O)CCCC[C@@H]1CCSS1 [Modification A, trometamol salt of R-thioctic acid]",46°
2,"O=C(O)CCCC[C@@H]1CCSS1 [Modification mixture A/B = 1:1, trometamol salt of R-thioctic acid]",34°
3,"O=C(O)CCCC[C@@H]1CCSS1 [Modification B, trometamol salt of R-thioctic acid]",32°
